According to patent publication US9896441B2 (Lycera Corporation, priority 2014, dated 2018):

How the values were obtained:
Gal4-RORγ-LBD = molecular target: T1, Gal4-RORγ-LBD (Homo sapiens, UniProt P51449); assay: Gal4-RORγ Luciferase Reporter Assay in HEK-293T Cells; type: cell-based; conditions: HEK-293 cells; for Gal4-RORγ Assay Max Response: maximum response
T1 construct: expressed in transfected cells
T1 sequence (P51449 269-508 limits assumed): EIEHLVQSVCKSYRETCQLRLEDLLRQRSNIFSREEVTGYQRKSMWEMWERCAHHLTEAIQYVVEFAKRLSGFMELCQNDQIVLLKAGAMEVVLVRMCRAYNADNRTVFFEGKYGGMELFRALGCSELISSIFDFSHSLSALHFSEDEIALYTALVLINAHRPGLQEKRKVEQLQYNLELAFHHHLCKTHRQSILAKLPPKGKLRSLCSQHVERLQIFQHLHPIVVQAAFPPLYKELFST
Method in brief: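 HEK-293 cells were co-transfected with Gal4-RORγ-LBD and a Gal4-luciferase reporter, then exposed overnight at 37 °C to compounds with […] ursolic acid present (0.2% DMSO). Luminescence was read with One-Glo after 10 min at RT, untreated signal was set as 100, and Max Response was taken as the upper plateau of a 4-parameter logistic fit.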

RORγ-LBD = molecular target: T2, RORγ-LBD (Homo sapiens, UniProt P51449); assay: RORγ-Ligand Binding Domain (LBD) TR-FRET Assay; type: biochemical; conditions: for TR-FRET Assay Max Response: maximum response;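 on TR-FRET Assay Max Response: 665/615 nm signal ratio set to 100 without ursolic acid or test compound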
T2 construct: made in house; host or cells: SF9 cells (baculovirus); used as diluted lysate
T2 sequence (P51449 269-508 limits assumed): T1 sequence (P51449 269-508 limits assumed)
Method in brief: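 SF9 lysate containing His-RORγ-LBD, ~3 nM final; coactivator peptide biotin-SRC1 LXXLL, 200 nM final; ursolic acid 2 μM final; DMSO 1% final; Tris pH 7.0 buffer with KCl, EDTA, DTT, BSA. TR-FRET format.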

[1] = luciferase reporter, in presence of ursolic acid
[2] = luciferase reporter, with ursolic acid

| EC50 (Gal4-RORγ-LBD; [1]) [nM] | EC50 (RORγ-LBD; RORγ-LBD TR-FRET assay) [nM] | EC50 (Gal4-RORγ-LBD; [2]) [nM] | EC50 (RORγ-LBD; RORγ-LBD TR-FRET) [nM] | Compound | Gal4-RORγ Assay Max Response (Gal4-RORγ-LBD; [1]) | TR-FRET Assay Max Response (RORγ-LBD; RORγ-LBD TR-FRET assay) | further results |
| --- | --- | --- | --- | --- | --- | --- | --- |
| < 500 | < 500 |  |  | CC(=O)N[C@@H]1Cc2ccc(OCc3c(F)cccc3Cl)cc2N(S(=O)(=O)c2cccc(C(F)(F)F)c2)C1 [Example 160, (R)—N-(7-((2-chloro-6-fluorobenzyl)oxy)-1-((3-(trifluoromethyl)phenyl)sulfonyl)-1,2,3,4-tetrahydroquinolin-3-yl)acetamide] |  |  |  |
|  |  | 500 to 5000 | < 500 | CC/C(=C\c1ccc2c(c1)N(S(=O)(=O)c1cccc(C(F)(F)F)c1)C[C@H](CCC(=O)O)O2)c1ccccc1 [Example 36C, (S,E)-3-(6-(2-phenylbut-1-en-1-yl)-4-((3-(trifluoromethyl)-phenyl)sulfonyl)-3,4-dihydro-2H-benzo[b][1,4]oxazin-2-yl)propanoic acid] |  |  |  |
|  |  | 500 to 5000 | < 500 | CC(C)=Cc1ccc2c(c1)N(S(=O)(=O)c1cccc(C(F)(F)F)c1)C[C@H](CCC(=O)O)O2 [Example 95AB, (S)-3-(6-(2-methylprop-1-en-1-yl)-4-((3-(trifluoromethyl)-phenyl)sulfonyl)-3,4-dihydro-2H-benzo[b][1,4]oxazin-2-yl)propanoic acid] |  |  |  |
| < 500 | < 500 |  |  | C/C(=C\c1ccc2c(c1)N(S(=O)(=O)c1cccc(C(F)(F)F)c1)C[C@@H](NC(=O)C(C)(C)O)C2)c1c(F)cccc1Cl [Example 116G, (S,E)-N-(7-(2-(2-chloro-6-fluorophenyl)prop-1-en-1-yl)-1-((3-(trifluoromethyl)-phenyl)sulfonyl)-1,2,3,4-tetrahydroquinolin-3-yl)-2-hydroxy-2-methylpropanamide] | * (a value in the range of 30 to 90) | *** (a value in the range of greater than 150 to 200) |  |
| < 500 | < 500 |  |  | C/C(=C\c1ccc2c(c1)N(S(=O)(=O)c1cccc(C(F)(F)F)c1)C[C@H](CCNS(=O)(=O)C1CC1)O2)c1c(F)cccc1Cl [Example 116A, (S,E)-N-(2-(6-(2-(2-chloro-6-fluorophenyl)prop-1-en-1-yl)-4-((3-(trifluoro-methyl)phenyl)-sulfonyl)-3,4-dihydro-2H-benzo[b][1,4]oxazin-2-yl)ethyl)cyclopropane-sulfonamide] | ** (a value in the range of greater than 90 to 150) | *** (a value in the range of greater than 150 to 200) |  |
| 500 to 5000 | < 500 |  |  | O=S(=O)(c1cccc(C(F)(F)F)c1)N1C[C@H](CO)Oc2ccc(Oc3ccccc3)cc21 [Example 130, (R)-(6-Phenoxy-4-((3-(trifluoromethyl)phenyl)sulfonyl)-3,4-dihydro-2H-benzo[b][1,4]oxazin-2-yl)methanol] | ** (a value in the range of greater than 90 to 150) | *** (a value in the range of greater than 150 to 200) |  |
|  |  | < 500 | < 500 | COC(=O)CC[C@H]1CN(S(=O)(=O)c2cccc(C(F)(F)F)c2)c2cc(/C=C(\C)c3c(F)cccc3Cl)c(C)cc2O1 [Example 55, Methyl (S,E)-3-(6-(2-(2-chloro-6-fluorophenyl)prop-1-en-1-yl)-7-methyl-4-((3-(trifluoromethyl)phenyl)sulfonyl)-3,4-dihydro-2H-benzo[b][1,4]oxazin-2-yl)propanoate] |  |  |  |
| < 500 | < 500 |  |  | C/C(=C\c1ccc2c(c1)N(S(=O)(=O)c1cccc(C(F)(F)F)c1)C[C@H](CCC(=O)N1CC[C@@H](C(=O)O)C1)O2)c1c(F)cccc1Cl [Example 129B, (R)-1-(3-((S)-6-((E)-2-(2-chloro-6-fluorophenyl)-prop-1-en-1-yl)-4-((3-(trifluoromethyl)phenyl)sulfonyl)-3,4-dihydro-2H-benzo[b][1,4]oxazin-2-yl)propanoyl)pyrrolidine-3-carboxylic acid] | ** (a value in the range of greater than 90 to 150) | **** (a value greater than 200) |  |
|  |  | 500 to 5000 | < 500 | CCOc1ncc(C(F)(F)F)cc1S(=O)(=O)N1C[C@H](CCC(=O)O)Oc2ccc(/C=C(\C)c3c(Cl)cccc3C(F)(F)F)cc21 [Example 77, (S,E)-3-(6-(2-(2-Chloro-6-(trifluoromethyl)phenyl)prop-1-en-1-yl)-4-((2-ethoxy-5-(trifluoromethyl)pyridin-3-yl)sulfonyl)-3,4-dihydro-2H-benzo[b][1,4]oxazin-2-yl)propanoic acid] |  |  |  |
| 500 to 5000 | < 500 |  |  | C/C(=C\c1ccc2c(c1)N(S(=O)(=O)c1cccc(C(F)(F)F)c1)C[C@H](OCC(=O)O)C2)c1c(F)cccc1Cl [Example 173E, (R,E)-2-((7-(2-(2-chloro-6-fluorophenyl)prop-1-en-1-yl)-1-((3-(trifluoromethyl)-phenyl)sulfonyl)-1,2,3,4-tetrahydroquinolin-3-yl)oxy)acetic acid] | ** (a value in the range of greater than 90 to 150) | ** (a value in the range of greater than 90 to 150) |  |

Second part, the compound before the results:

| Compound | EC50 (Gal4-RORγ-LBD; [1]) [nM] | EC50 (RORγ-LBD; RORγ-LBD TR-FRET assay) [nM] | EC50 (Gal4-RORγ-LBD; [2]) [nM] | EC50 (RORγ-LBD; RORγ-LBD TR-FRET) [nM] | Gal4-RORγ Assay Max Response (Gal4-RORγ-LBD; [1]) | TR-FRET Assay Max Response (RORγ-LBD; RORγ-LBD TR-FRET assay) | further results |
| --- | --- | --- | --- | --- | --- | --- | --- |
| O=C(O)CC[C@H]1CN(S(=O)(=O)c2cccc(C(F)(F)F)c2)c2cc(CCc3c(F)cccc3Cl)ccc2O1 |  |  |  |  |  |  | EC50 (Gal4-RORγ-LBD; ursolic acid present, luciferase readout): 500 to 5000 nM; EC50 (RORγ-LBD; with 2 μM ursolic acid (RORγ antagonist), highest test concentration 10 μM): < 500 nM |
| COc1cc(S(=O)(=O)C2CC(CCC(=O)O)Oc3ccc(OCc4c(F)cccc4Cl)cc32)ccc1F (stereo not shown) [Example 179, 3-(6-((2-Chloro-6-fluorobenzyl)oxy)-4-((4-fluoro-3-methoxyphenyl)sulfonyl)chroman-2-yl)propanoic acid] | 500 to 5000 | < 500 |  |  | *** (a value in the range of greater than 150 to 200) | ** (a value in the range of greater than 90 to 150) |  |
| C/C(=C\c1ccc2c(c1)N(S(=O)(=O)c1cc(Cl)cnc1OCCO)C[C@H](CCC(=O)O)O2)c1c(F)cccc1Cl [Example 70, (S,E)-3-(4-((5-Chloro-2-(2-hydroxyethoxy)pyridin-3-yl)sulfonyl)-6-(2-(2-chloro-6-fluorophenyl)prop-1-en-1-yl)-3,4-dihydro-2H-benzo[b][1,4]oxazin-2-yl)propanoic acid] |  |  | < 500 | < 500 |  |  |  |
| CCOc1nn(CC)cc1S(=O)(=O)N1C[C@H](CCC(=O)OC)Oc2ccc(/C=C/c3c(Cl)cccc3C(F)F)cc21 [Example 89EI, methyl (S,E)-3-(6-(2-chloro-6-(difluoromethyl)styryl)-4-((3-ethoxy-1-ethyl-1H-pyrazol-4-yl)sulfonyl)-3,4-dihydro-2H-benzo[b][1,4]oxazin-2-yl)propanoate] |  |  | < 500 | < 500 |  |  |  |
| CCOc1nn(CC)cc1S(=O)(=O)N1C[C@H](CCC(=O)O)Oc2ccc(/C=C/c3nccnc3Cl)cc21 [Example 89M, (S,E)-3-(6-(2-(3-chloropyrazin-2-yl)vinyl)-4-((3-ethoxy-1-ethyl-1H-pyrazol-4-yl)sulfonyl)-3,4-dihydro-2H-benzo[b][1,4]oxazin-2-yl)propanoic acid] |  |  | > 10000 | > 10000 |  |  |  |
| CCOc1nn(CC)cc1S(=O)(=O)N1C[C@H](CCC(=O)OC)Oc2ccc(/C=C/c3ccc(Cl)cc3)cc21 [Example 89DA, methyl (S,E)-3-(6-(4-chlorostyryl)-4-((3-ethoxy-1-ethyl-1H-pyrazol-4-yl)sulfonyl)-3,4-dihydro-2H-benzo[b][1,4]oxazin-2-yl)propanoate] |  |  | > 10000 | > 10000 |  |  |  |
| COC(=O)CC[C@H]1CN(S(=O)(=O)c2cccc(OC(F)F)c2)c2c(ccc(/C=C(\C)c3c(F)cccc3Cl)c2F)O1 [Example 63, Methyl (S,E)-3-(6-(2-(2-chloro-6-fluorophenyl)prop-1-en-1-yl)-4-((3-(difluoromethoxy)phenyl)sulfonyl)-5-fluoro-3,4-dihydro-2H-benzo[b][1,4]oxazin-2-yl)propanoate] |  |  | 500 to 5000 | < 500 |  |  |  |
| COC(=O)CC[C@H]1CN(S(=O)(=O)c2cc(C(F)(F)F)cnc2OC[C@@H](C)O)c2cc(/C=C/c3c(F)cccc3Cl)ccc2O1 [Example 78, Methyl 3-((S)-6-((E)-2-chloro-6-fluorostyryl)-4-((2-((R)-2-hydroxypropoxy)-5-(trifluoromethyl)pyridin-3-yl)sulfonyl)-3,4-dihydro-2H-benzo[b][1,4]oxazin-2-yl)propanoate] |  |  | 500 to 5000 | 500 to 5000 |  |  |  |
| CCOc1nn(CC)cc1S(=O)(=O)N1C[C@H](CCC(=O)OC)Oc2ccc(/C=C/c3ccsc3)cc21 [Example 89L, (S,E)-methyl 3-(4-((3-ethoxy-1-ethyl-1H-pyrazol-4-yl)sulfonyl)-6-(2-(thiophen-3-yl)vinyl)-3,4-dihydro-2H-benzo[b][1,4]oxazin-2-yl)propanoate] |  |  | 500 to 5000 | < 500 |  |  |  |
| COc1cc(S(=O)(=O)N2CCCc3ccc(OCc4c(F)cccc4C(F)(F)F)cc32)ccc1F [Example 25R, 1-((4-fluoro-3-methoxyphenyl)sulfonyl)-7-((2-fluoro-6-(trifluoromethyl)benzyl)oxy)-1,2,3,4-tetrahydroquinoline] |  |  | < 500 | < 500 |  |  |  |
